# Data from article PMC7460544, “Prenylated Flavonoids from the Roots of Tephrosia rhodesica” (Journal of Natural Products, 2020).
# Assays:
# [1] = tested on: chloroquine-sensitive (3D7) strain of Plasmodium falciparum; test: asexual P. falciparum imaging growth inhibition assay (antiplasmodial activity); assay type: cell-based; settings: for antiplasmodial activity in words: P. falciparum 3D7
# HEK 293 mammalian cells = test: cytotoxicity against HEK 293 mammalian cells (LD50); assay type: cell-based; settings: single experiment
structure (smiles),measurement,setting,value
"CC(C)=CCC1(CC=C(C)C)C(=O)[C@](O)(CC=C(C)C)C(=O)C2=C1O[C@H](c1ccccc1)C[C@H]2O [Rhodiflavan B (3), 4,6-dihydroxy-6,8,8-tris(3-methylbut-2-en-1-yl)-2-phenyl-2,3,4,8-tetrahydro-5H-chromene-5,7(6H)-dione]",antiplasmodial activity in words,[1],moderate activities
same,"LD50 (HEK-293), given as % at 40 μM",HEK 293 mammalian cells,34% at 40 μM
"COc1cc(OC)c2c(c1CC=C(C)C)O[C@H](c1ccccc1)C[C@H]2OC [Quercetol B (9), quercetol B]",antiplasmodial activity in words,[1],moderate activities
same,"LD50 (HEK-293), given as % at 40 μM",HEK 293 mammalian cells,87% at 40 μM
"C=C(C)[C@H]1Cc2c(ccc3c2O[C@@H]2C(O)Oc4cc(OC)c(OC)cc4[C@@H]2C3=O)O1 (stereo partly drawn) [6-Hydroxyrotenone (15), 6-hydroxyrotenone]",antiplasmodial activity in words,[1],moderate activities
same,LD50 (HEK-293),HEK 293 mammalian cells,10.9 µM
"CC(C)=CCC1(CC=C(C)C)C(=O)C(=O)C2=C1O[C@H](c1ccccc1)C[C@H]2O (relative stereo) [Rhodiflavan C (4), (2S*,4R*)-4-hydroxy-7,7-bis(3-methylbut-2-en-1-yl)-2-phenyl-2,3,4,7-tetrahydrocyclopenta[b]pyran-5,6-dione]",antiplasmodial activity in words,[1],moderate activities
same,"LD50 (HEK-293), given as % at 40 μM",HEK 293 mammalian cells,101% at 40 μM
"CCN(CC)CCCC(C)Nc1ccnc2cc(Cl)ccc12 (stereo not drawn) [Chloroquine, reference compound]",IC50,"[1]; Plasmodium falciparum, 3D7, read-out: IC50, μM (Pf3D7)",0.0047 µM
"CC(C)=CCC1(CC=C(C)C)C(=O)[C@@](O)(CC=C(C)C)C(=O)C2=C1O[C@H](c1ccccc1)C[C@H]2O [Rhodiflavan A (2), 4,6-dihydroxy-6,8,8-tris(3-methylbut-2-en-1-yl)-2-phenyl-2,3,4,8-tetrahydro-5H-chromene-5,7(6H)-dione]",antiplasmodial activity in words,[1],moderate activities
"CC(C)=CCc1cc2c(cc1O)OC[C@@]1(O)c3cc4c(cc3O[C@@H]21)OCO4 [Rhodacarpin (5), (6aS,12aS)-2-(3-methylbut-2-en-1-yl)-6H-[1,3]dioxolo[4′,5′:5,6]benzofuro[3,2-c]chromene-3,6a(12aH)-diol]",antiplasmodial activity in words,[1],moderate activities
same,"LD50 (HEK-293), given as % at 40 μM",HEK 293 mammalian cells,27% at 40 μM
